Measurements as given in patent publication US20210403420A1, “BENZOATE COMPOUND” (SCOHIA PHARMA, INC., priority 2018, published 2021).
Counter-ions that a name gives are not always drawn.

Assays:
[1] = biological target: T1, Human recombinant enteropeptidase (Homo sapiens, UniProt P98073); assay: Human enteropeptidase inhibitory activity; format: biochemical; conditions: 1 μM test compound; fluorescence intensity at 2 hours after start of reaction; read-out: Inhibition rate at 1 μM
T1 construct: purchased ITSI-Biosciences LLC #REN-260
Method: Test Example 1: Human Enteropeptidase Inhibitory Activity
Human recombinant enteropeptidase (#REN-260, ITSI-Biosciences LLC) was diluted with an assay buffer (50 mM Tricine, pH 8.0, 0.01 (w/v) %, Tween 20, 10 mM CaCl2)) to prepare a 24 mU/mL enzyme solution. Subsequently, 5FAM-Abu-Gly-Asp-Asp-Asp-Lys-Ile-Val-Gly-Gly-Lys(CPQ2)-Lys-Lys-NH2 (CPC Scientific Inc.) was diluted with the assay buffer to prepare a 2.1 μM substrate solution. A test compound is dissolved in DMSO into a 10 mM solution, and the solution was diluted with the assay buffer to give a compound solution. To a 384-well black plate (#784076, Greiner Bio-One), 5 μL of the compound solution and 5 μL of the substrate solution were added and mixed, and 5 μL of the enzyme solution was then added to the mixture, followed by mixing to start the reaction. The fluorescence intensity was measured with a fluorescence plate reader EnVision (The Perkin-Elmer Corp.) at an excitation wavelength of 485 nm and a fluorescence wavelength of 535 nm. The same reaction as above was performed without the addition of the test compound (test compound non-addition group). Furthermore, the same reaction as above was performed without the addition of the test compound and the enzyme (control group). The inhibition rate was calculated using the fluorescence intensity at 2 hours after the start of the reaction by the following expression:
Inhibition rate (%)=(1−((fluorescence intensity of test compound addition group)−(fluorescence intensity of control group))/((fluorescence intensity of test compound non-addition group)−(fluorescence intensity of control group)))×100

High fat diet-fed mice = assay: Fecal protein concentration-increasing test using high fat diet-fed mouse; format: in vivo; conditions: Mus musculus, po, 24 h, feces of first day of administration, vehicle group = 100, read-out: Fecal protein concentration-increasing rate; for response vs control in vivo at 30 mg/kg: 30 mg/kg oral
Excerpt: Test Example 2: Fecal Protein Concentration-Increasing Test Using High Fat Diet-Fed Mouse
High fat diet-fed mice (D12451 diet, male, 10- to 50-week old) were orally administered with a 0.5% methyl cellulose suspension containing a test compound (compound administration group, five mice per group) or a 0.5% methyl cellulose suspension (compound non-administration group (vehicle group), five mice per group), and whole feces were collected on the first day of administration. Dried feces were dissolved in 0.5 N NaOH, followed by centrifugation at 12,000 rpm. The protein concentration in the supernatant was then quantitatively measured (Lowry method), and the amount of protein contained in 1 g of feces was calculated as the fecal protein concentration (mg/g feces). The fecal protein concentration-increasing rate was calculated by the following expression.
Fecal protein concentration-increasing rate (%)=Fecal protein concentration of compound administration group/Fecal protein concentration of vehicle group×100

[2] = tested on: Diet-induced obesity (DIO) mice; assay: Anti-obesity effect test using DIO mouse; format: in vivo; conditions: for Body weight (g) At start of administration: average at start of administration; for Body weight (g) After 7-day administration: average; for Fecal protein concentration-increasing rate (%): feces of eighth day, vehicle = 100
Method: Test Example 3: Anti-Obesity Effect Test Using DIO Mouse
Diet-induced obesity (DIO) mice (D12451 diet, male, 26-week old) were orally administered with a 0.5% methyl cellulose suspension containing a test compound (30 mg/kg) (compound administration group, five mice per group) or a 0.5% methyl cellulose suspension (compound non-administration group (vehicle), five mice per group) once a day for seven days, and whole feces were collected on the eighth day of administration. Dried feces were dissolved in 0.5 N NaOH, followed by centrifugation at 12,000 rpm. The protein concentration in the supernatant was then quantitatively measured (Lowry method), and the amount of protein contained in 1 g of feces was calculated as the fecal protein concentration (mg/g feces). The fecal protein concentration-increasing rate was calculated by the following expression.
Fecal protein concentration-increasing rate (%)=Fecal protein concentration of compound administration group/Fecal protein concentration of vehicle group X 100
The fecal protein concentration-increasing rate and the averages of the body weights at the start of administration and after administration for seven days are shown in Table 6.
Also, DIO mice (D12451 diet, male, 59-week old) were orally administered with a 0.5% methyl cellulose suspension containing a test compound (20 mg/kg) (compound administration group, five mice per group) or a 0.5% methyl cellulose suspension (compound non-administration group (vehicle), five mice per group) once a day for seven days, and whole feces were collected on the eighth day of administration. The fecal protein concentration (mg/g feces) was calculated by the method described above. The fecal protein concentration-increasing rate and the averages of the body weights at the start of administration and after administration for seven days are shown in Table 7.

[3] = DIO mice 26-week old, 30 mg/kg group
[4] = DIO mice 26-week old, 30 mg/kg oral once a day for seven days
[5] = DIO mice 59-week old, 20 mg/kg group
[6] = DIO mice 59-week old, 20 mg/kg oral once a day for seven days

T1 sequence (P98073 whole entry): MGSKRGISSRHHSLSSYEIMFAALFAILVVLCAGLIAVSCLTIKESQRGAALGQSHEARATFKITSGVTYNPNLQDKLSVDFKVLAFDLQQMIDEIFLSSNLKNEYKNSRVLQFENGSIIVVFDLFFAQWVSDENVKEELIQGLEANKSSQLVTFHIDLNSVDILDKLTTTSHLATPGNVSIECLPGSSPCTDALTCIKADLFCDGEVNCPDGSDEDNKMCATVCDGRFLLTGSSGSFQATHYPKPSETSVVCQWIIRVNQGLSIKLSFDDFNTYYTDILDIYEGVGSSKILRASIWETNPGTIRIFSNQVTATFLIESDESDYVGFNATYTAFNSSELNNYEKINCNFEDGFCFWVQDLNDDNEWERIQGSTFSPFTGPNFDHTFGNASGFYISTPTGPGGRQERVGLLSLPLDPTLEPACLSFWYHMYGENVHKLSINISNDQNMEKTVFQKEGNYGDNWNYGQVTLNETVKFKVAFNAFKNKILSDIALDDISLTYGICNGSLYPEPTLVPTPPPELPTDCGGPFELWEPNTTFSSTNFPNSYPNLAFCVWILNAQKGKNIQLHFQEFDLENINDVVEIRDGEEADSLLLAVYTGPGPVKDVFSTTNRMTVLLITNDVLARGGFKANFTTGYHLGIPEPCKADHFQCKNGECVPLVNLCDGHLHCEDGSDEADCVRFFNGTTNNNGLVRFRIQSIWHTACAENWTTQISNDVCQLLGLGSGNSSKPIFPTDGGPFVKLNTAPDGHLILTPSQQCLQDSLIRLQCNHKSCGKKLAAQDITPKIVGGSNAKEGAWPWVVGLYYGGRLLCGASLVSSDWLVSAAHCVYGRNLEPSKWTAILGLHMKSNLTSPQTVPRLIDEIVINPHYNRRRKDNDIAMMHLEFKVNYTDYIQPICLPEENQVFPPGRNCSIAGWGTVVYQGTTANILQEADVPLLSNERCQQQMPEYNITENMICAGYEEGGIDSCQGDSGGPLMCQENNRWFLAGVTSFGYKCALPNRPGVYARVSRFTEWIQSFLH

SMILES | inhibition at 1 µM [1] [%] | response vs control in vivo at 30 mg/kg (High fat diet-fed mice) [%] | Body weight (g) At start of administration [2, 3] [g] | Body weight (g) After 7-day administration [2, 4] [g] | Fecal protein concentration-increasing rate (%) [2, 4] [%] | Body weight (g) At start of administration [2, 5] [g] | Body weight (g) After 7-day administration [2, 6] [g] | Fecal protein concentration-increasing rate (%) [2, 6] [%] | response vs control in vivo at 10 mg/kg (High fat diet-fed mice; 10 mg/kg oral) [%]
N=C(N)Nc1ccc(C(=O)Oc2cc(OCCOCCOCCOc3cc(OC(=O)c4ccc(NC(=N)N)cc4)cc(C(=O)N[C@H](CO)C(=O)O)c3)cc(C(=O)N[C@H](CO)C(=O)O)c2)cc1 [Example 10, (2R)-2-[[3-[2-[2-[2-[3-[[(1R)-1-Carboxy-2-hydroxyethyl]carbamoyl]-5-(4-guanidinobenzoyl)oxyphenoxy]ethoxy]ethoxy]ethoxy]-5-(4-guanidinobenzoyl)oxybenzoyl]amino]-3-hydroxypropanoic acid] | 92 | 179 |  |  |  |  |  |  | 
N=C(N)Nc1ccc(C(=O)Oc2cc(OCCOCCOCCOc3cc(OC(=O)c4ccc(NC(=N)N)cc4)cc(C(=O)N[C@H](CCCCN)C(=O)O)c3)cc(C(=O)N[C@H](CCCCN)C(=O)O)c2)cc1 [Example 11, (2R)-6-Amino-2-[[3-[2-[2-[2-[3-[[(1R)-5-amino-1-carboxypentyl]carbamoyl]-5-(4-guanidinobenzoyl)oxyphenoxy]ethoxy]ethoxy]ethoxy]-5-(4-guanidinobenzoyl)oxybenzoyl]amino]hexanoic acid] | 60 | 171 |  |  |  |  |  |  | 
N=C(N)Nc1ccc(C(=O)Oc2ccc(CCC(=O)N[C@@H](CC(=O)O)C(=O)O)c(OCCOCCOCCOc3cc(OC(=O)c4ccc(NC(=N)N)cc4)ccc3CCC(=O)N[C@@H](CC(=O)O)C(=O)O)c2)cc1 [Example 12, (2S)-2-[3-[2-[2-[2-[2-[2-[3-[[(1S)-1,2-Dicarboxyethyl]amino]-3-oxopropyl]-5-(4-guanidinobenzoyl)oxyphenoxy]ethoxy]ethoxy]ethoxy]-4-(4-guanidinobenzoyl)oxyphenyl]propanoylamino]butanedioic acid dihydrochloride] | 100 | 197 | 45.4 | 44.7 | 280 |  |  |  | 
N=C(N)Nc1ccc(C(=O)Oc2ccc(CCC(=O)N[C@H](CC(=O)O)C(=O)O)c(OCCOCCOc3cc(OC(=O)c4ccc(NC(=N)N)cc4)ccc3CCC(=O)N[C@H](CC(=O)O)C(=O)O)c2)cc1 [Example 13, (2R)-2-[3-[2-[2-[2-[2-[3-[[(1R)-1,2-Dicarboxyethyl]amino]-3-oxopropyl]-5-(4-guanidinobenzoyl)oxyphenoxy]ethoxy]ethoxy]-4-(4-guanidinobenzoyl)oxyphenyl]propanoylamino]butanedioic acid] | 100 | 150 |  |  |  |  |  |  | 
N=C(N)Nc1ccc(C(=O)Oc2ccc(CCC(=O)N[C@H](CC(=O)O)C(=O)O)c(OCCOCCOCCOc3cc(OC(=O)c4ccc(NC(=N)N)cc4)ccc3CCC(=O)N[C@H](CC(=O)O)C(=O)O)c2)cc1 [Example 14, (2R)-2-[3-[2-[2-[2-[2-[2-[3-[[(1R)-1,2-Dicarboxyethyl]amino]-3-oxopropyl]-5-(4-guanidinobenzoyl)oxyphenoxy]ethoxy]ethoxy]ethoxy]-4-(4-guanidinobenzoyl)oxyphenyl]propanoylamino]butanedioic acid] | 100 | 171 |  |  |  |  |  |  | 
Cl.Cl.N=C(N)Nc1ccc(C(=O)Oc2cc(OCCOCCOc3cc(OC(=O)c4ccc(NC(=N)N)cc4)cc(C(=O)N[C@H](CC(=O)O)C(=O)O)c3)cc(C(=O)N[C@H](CC(=O)O)C(=O)O)c2)cc1 [Example 15, (2R)-2-[[3-[2-[2-[3-[[(1R)-1,2-Dicarboxyethyl]carbamoyl]-5-(4-guanidinobenzoyl)oxyphenoxy]ethoxy]ethoxy]-5-(4-guanidinobenzoyl)oxybenzoyl]amino]butanedioic acid dihydrochloride] | 100 | 212 | 46.0 | 43.4 | 250 | 56.6 | 54.0 | 227 | 

Further lines, with some results ahead:

inhibition at 1 µM [1] [%] | SMILES | response vs control in vivo at 30 mg/kg (High fat diet-fed mice) [%] | Body weight (g) At start of administration [2, 3] [g] | Body weight (g) After 7-day administration [2, 4] [g] | Fecal protein concentration-increasing rate (%) [2, 4] [%] | Body weight (g) At start of administration [2, 5] [g] | Body weight (g) After 7-day administration [2, 6] [g] | Fecal protein concentration-increasing rate (%) [2, 6] [%] | response vs control in vivo at 10 mg/kg (High fat diet-fed mice; 10 mg/kg oral) [%]
100 | N=C(N)Nc1ccc(C(=O)Oc2cc(OCCOc3cc(OC(=O)c4ccc(NC(=N)N)cc4)cc(C(=O)N[C@H](CC(=O)O)C(=O)O)c3)cc(C(=O)N[C@H](CC(=O)O)C(=O)O)c2)cc1 [Example 16, (2R)-2-[[3-[2-[3-[[(1R)-1,2-Dicarboxyethyl]carbamoyl]-5-(4-Guanidinobenzoyl)oxyphenoxy]ethoxy]-5-(4-guanidinobenzoyl)oxybenzoyl]amino]butanedioic acid dihydrochloride] | 245 | 45.7 | 44.7 | 271 |  |  |  | 
100 | N=C(N)Nc1ccc(C(=O)Oc2cc(OCCOCCOc3cc(OC(=O)c4ccc(NC(=N)N)cc4F)cc(C(=O)N[C@H](CC(=O)O)C(=O)O)c3)cc(C(=O)N[C@H](CC(=O)O)C(=O)O)c2)c(F)c1 [Example 18, (2R)-2-[[3-[2-[2-[3-[[(1R)-1,2-Dicarboxyethyl]carbamoyl]-5-(2-fluoro-4-guanidinobenzoyl)oxyphenoxy]ethoxy]ethoxy]-5-(2-fluoro-4-guanidinobenzoyl)oxybenzoyl]amino]butanedioic acid] | 142 |  |  |  |  |  |  | 
100 | N=C(N)Nc1ccc(C(=O)Oc2ccc(OCCOCCOc3ccc(OC(=O)c4ccc(NC(=N)N)cc4)cc3C(=O)N[C@H](CC(=O)O)C(=O)O)c(C(=O)N[C@H](CC(=O)O)C(=O)O)c2)cc1 [Example 19, (2R)-2-[[2-[2-[2-[2-[[(1R)-1,2-Dicarboxyethyl]carbamoyl]-4-(4-guanidinobenzoyl)oxyphenoxy]ethoxy]ethoxy]-5-(4-guanidinobenzoyl)oxybenzoyl]amino]butanedioic acid] | 215 |  |  |  |  |  |  | 
99 | N=C(N)Nc1ccc(C(=O)Oc2cc(OCCOCCOc3cc(OC(=O)c4ccc(NC(=N)N)cc4)cc(C(=O)NCCS(=O)(=O)O)c3)cc(C(=O)NCCS(=O)(=O)O)c2)cc1 [Example 20, 2-[[3-(4-Guanidinobenzoyl)oxy-5-[2-[2-[3-(4-guanidinobenzoyl)oxy-5-(2-sulfoethylcarbamoyl)phenoxy]ethoxy]ethoxy]benzoyl]amino]ethanesulfonic acid ditrifluoroacetate] |  |  |  |  |  |  |  | 143
100 | N=C(N)Nc1ccc(C(=O)Oc2ccc(C(=O)N[C@H](CC(=O)O)C(=O)O)c(OCCOCCOc3cc(OC(=O)c4ccc(NC(=N)N)cc4)ccc3C(=O)N[C@H](CC(=O)O)C(=O)O)c2)cc1 [Example 21, (2R)-2-[[2-[2-[2-[2-[[(1R)-1,2-Dicarboxyethyl]carbamoyl]-5-(4-guanidinobenzoyl)oxyphenoxy]ethoxy]ethoxy]-4-(4-guanidinobenzoyl)oxybenzoyl]amino]butanedioic acid dihydrochloride] | 203 |  |  |  | 56.7 | 53.6 | 248 | 
